Data published in patent US10166225B2, “Method for treating osteoporosis” (Exelixis, Inc., priority 2011, dated 2019).

System: rat ovariectomy (OVX) model
Assay: Short-term effects on body weight, uterine weight and bone turnover markers in the rat ovariectomy (OVX) model
Format: in vivo, rat (Sprague-Dawley)
Set-up: key to Body weight, change during the first week / Body weight, change during the in-life phase / Relative uterine weight at day 14 / Serum PINP levels, change during the in-life phase / Serum OC levels, change during the in-life phase / Serum CTX levels, change during the in-life phase / Serum TRACP 5b activity, change during the in-life phase: An upwards arrow (↑) indicates a statistically significant increase; a downwards arrow (↓) a statistically significant decrease; One asterisk (*) indicates a statistical significance with a p-value<0.05; two asterisks (**) with a p-value<0.01; three asterisks (***) with a p-value<0.001; NS=Non-significant
Conditions: for Body weight, change during the first week / Body weight, change during the in-life phase / Relative uterine weight at day 14 / Serum CTX levels, change during the in-life phase / Serum OC levels, change during the in-life phase / Serum PINP levels, change during the in-life phase / Serum TRACP 5b activity, change during the in-life phase: OVX rats vs OVX vehicle
Description: The objective of this study was to investigate short-term effects of Compound 1 on biochemical serum markers of bone metabolism in a prevention study in a rat ovariectomy (OVX) model for postmenopausal osteoporosis. 17β-estradiol (E2) was used as a reference compound. The following five experimental groups were included in the study:
Each group contained eight female rats (Sprague-Dawley) that were three months of age at the beginning of in-life phase of the study. Before the start of the in-life phase, animals were weighed, their blood samples were harvested, and animals were randomized to study groups by stratification according to body weight and serum levels of procollagen type I N-terminal propeptide (PINP). At the beginning of the in-life phase, animals were weighed and operated. Treatment was started one day after the operations and continued once a day for two weeks. Sterile water was used as vehicle in groups 1 and 2. Body weight was determined after one week of treatment and treatment doses were adjusted accordingly. After two weeks of treatment, animals were weighed, their blood samples were harvested, animals were terminated, and their relative uterine weight was determined. For analyzing short-term effects of treatments, levels of four bone metabolism biomarkers were determined in serum samples harvested before the start and at the end of the in-life phase. These biomarkers included PINP as a marker of bone formation, N-terminal mid-fragment of osteocalcin (OC) as a general marker of bone turnover, C terminal cross-linked telopeptides of type I collagen (CTX) as a marker of bone resorption, and tartrate-resistant acid phosphatase isoform 5b (TRACP 5b) as a marker of osteoclast number. Serum levels at day −7 were used as baseline levels and serum levels at day 14 as levels affected by operations and treatments.
Each group contained eight female rats (Sprague-Dawley) that were three months of age at the beginning of in-life phase of the study. Animals were randomized to study groups by stratification according to their body weight and serum levels of procollagen type I N-terminal propeptide (PINP) measured one week before the start of the in-life phase (at day −7). At the beginning of the in-life phase (at day 0), animals were weighed, animals in groups 2-5 were ovariectomized, and animals in group 1 SHAM-operated. Treatment was started one day after the operations and continued once a day for two weeks (up to day 13). Sterile water was used as vehicle in groups 1 and 2. Body weight was determined at the beginning of the in-life phase (at day 0), one week after the start of the inlife phase (at day 7), and at the end of the in-life phase (at day 14). Treatment doses were adjusted according to the latest body weight obtained. After two weeks of treatment (at day 14), animals were weighed, their blood samples were harvested, animals were terminated, and their relative uterine weight was determined. For analyzing short-term effects of treatments, levels of four bone metabolism biomarkers were measured in serum samples harvested before the start of the in-life phase (at day −7) and at the end of the in-life phase (at day 14). These biochemical serum markers included PINP, N-terminal mid-fragment of osteocalcin (OC), C-terminal cross-linked telopeptides of type I collagen (CTX), and tartrate-resistant acid phosphatase isoform 5b (TRACP 5b). Serum levels obtained at day −7 were used as baseline levels and serum levels obtained at day 14 as levels affected by surgical operations and treatments.
Biochemical markers of bone metabolism are useful tools for monitoring osteoporosis therapy and for prediction of fracture risk and long-term changes in bone mineral density (Cremers et al. 2008). […]

[1] = OVX rats, Compound 1 oral dose of 3 mg/kg/d, two weeks
[2] = OVX rats, Compound 1 oral doses of 1 and 3 mg/kg/d, two weeks

COc1cc2nccc(Oc3ccc(NC(=O)C4(C(=O)Nc5ccc(F)cc5)CC4)cc3)c2cc1OC [Compound 1, N-(4-{[6,7-bis(methyloxy)quinolin-4-yl]oxy}phenyl)-N′-(4-fluorophenyl)cyclopropane-1,1-dicarboxamide]
Body weight, change during the first week (cabozantinib 1 mg/kg/d p.o.): ↓ *
Body weight, change during the in-life phase (cabozantinib 1 mg/kg/d p.o.): ↓ *
Relative uterine weight at day 14 (cabozantinib 1 mg/kg/d p.o.): NS
Serum CTX levels, change during the in-life phase (cabozantinib 1 mg/kg/d p.o.): NS
Serum OC levels, change during the in-life phase (cabozantinib 1 mg/kg/d p.o.): NS
Serum PINP levels, change during the in-life phase (cabozantinib 1 mg/kg/d p.o.): NS
Serum TRACP 5b activity, change during the in-life phase (cabozantinib 1 mg/kg/d p.o.): NS
Body weight, change during the first week (cabozantinib 3 mg/kg/d p.o.): NS
Body weight, change during the in-life phase (cabozantinib 3 mg/kg/d p.o.): NS
Relative uterine weight at day 14 (cabozantinib 3 mg/kg/d p.o.): NS
Serum CTX levels, change during the in-life phase (cabozantinib 3 mg/kg/d p.o.): NS
Serum OC levels, change during the in-life phase (cabozantinib 3 mg/kg/d p.o.): NS
Serum PINP levels, change during the in-life phase (cabozantinib 3 mg/kg/d p.o.): ↑ *
Serum TRACP 5b activity, change during the in-life phase (cabozantinib 3 mg/kg/d p.o.): ↓ *
OVX-induced gain in body weight (OVX rats, Compound 1 oral dose of 1 mg/kg/d, two weeks): partially prevented
OVX-induced increase in serum PINP levels [1]: enhanced
OVX-induced reduction in serum TRACP 5b activity [1]: enhanced
OVX-induced increase in serum CTX levels [2]: did not affect
OVX-induced increase in serum OC levels [2]: did not affect
OVX-induced reduction in relative uterine weight [2]: did not affect
